Measurements published in US20230097866A1, “BACTERIAL TOPOISOMERASE INHIBITORS DERIVED FROM ISOMANNIDE” (Ohio State Innovation Foundation, priority 2020, published 2023).
pIC50: −log10 of the molar value. Values after ≈ are worked out from the molar mass of the structure shown. Like-named read-outs stand apart in the source and are kept apart here.

What was measured:
S. aureus ATCC 29213 [1] = experiment: MIC panel (Laboratory Specialists, Inc.), S. aureus ATCC 29213; format: cell-based; settings: Staphylococcus aureus, ATCC29213, read-out: MIC S. aureus ATCC 29213 (n = 3); Cmpd. 6; CLSI broth microdilution; very small pinpoint growth up to 4 μg/mL
S. aureus ATCC 29213 [2] = format: cell-based, Staphylococcus aureus; settings: S. aureus ATCC 29213
[3] = tested on: Escherichia coli ATCC 25922; experiment: MIC panel (Laboratory Specialists, Inc.), E. coli; format: cell-based; settings: ATCC25922, read-out: MIC Escherichia coli ATCC 25922 (n = 2), Cmpd. 6, CLSI broth microdilution
CYP2B6 = target: T1, CYP2B6 (Homo sapiens, UniProt P20813); experiment: CYP450 inhibition in human liver microsomes, CYP2B6; format: in vitro ADME; settings: 10 μM
T1 construct: incubated with human liver microsomes (mixed gender, pool of 50 donors, 0.1 mg/mL); from tissue; host or cells: human liver microsomes, pool of 50 donors
T1 sequence (P20813 whole entry): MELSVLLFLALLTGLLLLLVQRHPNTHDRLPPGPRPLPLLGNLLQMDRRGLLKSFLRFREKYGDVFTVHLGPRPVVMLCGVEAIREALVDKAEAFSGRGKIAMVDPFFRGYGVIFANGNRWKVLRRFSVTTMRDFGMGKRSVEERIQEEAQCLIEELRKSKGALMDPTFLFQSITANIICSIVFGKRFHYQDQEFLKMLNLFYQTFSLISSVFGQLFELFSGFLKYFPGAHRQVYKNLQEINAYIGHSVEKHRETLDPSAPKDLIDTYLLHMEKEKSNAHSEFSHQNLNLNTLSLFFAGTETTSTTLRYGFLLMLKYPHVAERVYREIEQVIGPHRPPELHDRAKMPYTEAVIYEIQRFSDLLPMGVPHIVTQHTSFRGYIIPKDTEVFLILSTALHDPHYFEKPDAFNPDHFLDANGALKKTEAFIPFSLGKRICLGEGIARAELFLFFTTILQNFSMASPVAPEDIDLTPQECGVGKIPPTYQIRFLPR
Description: (§1) CYP450 inhibition assays was conducted using individual enzyme substrates and inhibitors instead of a cocktail to avoid interferences. CYP450 isoforms tested included the following: CYP1A2, CYP2B6, CYP2C8, CYP2C9, CYP2C19, CYP2D6, and CYP3A4. Each test compound was screened at a final concentration of 10 μM. Each test compound was incubated with human liver microsomes (mixed gender, pool of 50 donors, 0.1 mg/mL), CYP450-selective probe substrates, and co-factors (NADPH, MgCl2) in phosphate buffer (pH 7.4) for 10-30 min in a 96-well plate at 37° C. The reactions were stopped by transferring the reaction mixture to acetonitrile/methanol. Samples were mixed and centrifuged, and the supernatants analyzed by LC-MS/MS to quantify percent inhibition relative to vehicle control.

[4] = tested on: Fluoroquinolone-resistant S. aureus (11 strains); experiment: MIC90, panel of fluoroquinolone-resistant MRSA isolates; format: cell-based, Staphylococcus aureus
Histamine H2 = Histamine H2 (Homo sapiens, UniProt P25021); experiment: Off-target safety panel, Histamine H2; format: binding; settings: duplicate, read-out: % Inhibition at 100 μM conc., Histamine H2
Histamine H2, sequence (P25021 whole entry): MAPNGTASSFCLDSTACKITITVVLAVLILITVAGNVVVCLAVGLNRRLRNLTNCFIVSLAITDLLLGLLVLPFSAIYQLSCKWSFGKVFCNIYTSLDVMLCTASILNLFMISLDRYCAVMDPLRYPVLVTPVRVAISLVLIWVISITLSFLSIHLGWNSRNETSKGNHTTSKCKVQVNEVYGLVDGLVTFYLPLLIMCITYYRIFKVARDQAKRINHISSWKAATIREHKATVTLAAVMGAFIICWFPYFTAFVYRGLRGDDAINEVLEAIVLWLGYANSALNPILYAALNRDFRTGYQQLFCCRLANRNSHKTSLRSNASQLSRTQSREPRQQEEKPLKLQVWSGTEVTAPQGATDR
Description: Potential off-target pharmacology for compound 6 was also evaluated by screening in duplicate against a panel (Bowes, J., et al., Reducing Safety-Related Drug Attrition: The Use of in vitro Pharmacological Profiling. Nat. Rev. Drug Disc. 2012, 11, 909-922) of 44 receptors, enzymes, etc. Of the 44 potential targets, only five were inhibited by >50% at a concentration of 100 μM (Table 7).

[5] = target: T2, Kir2.1 Human Potassium Ion Channel (Homo sapiens, UniProt P63252); experiment: Kir2.1 QPatch CiPA assay; format: cell-based; settings: mean, duplicate
T2 construct: expressed in transfected cells
T2 sequence (P63252 1-427): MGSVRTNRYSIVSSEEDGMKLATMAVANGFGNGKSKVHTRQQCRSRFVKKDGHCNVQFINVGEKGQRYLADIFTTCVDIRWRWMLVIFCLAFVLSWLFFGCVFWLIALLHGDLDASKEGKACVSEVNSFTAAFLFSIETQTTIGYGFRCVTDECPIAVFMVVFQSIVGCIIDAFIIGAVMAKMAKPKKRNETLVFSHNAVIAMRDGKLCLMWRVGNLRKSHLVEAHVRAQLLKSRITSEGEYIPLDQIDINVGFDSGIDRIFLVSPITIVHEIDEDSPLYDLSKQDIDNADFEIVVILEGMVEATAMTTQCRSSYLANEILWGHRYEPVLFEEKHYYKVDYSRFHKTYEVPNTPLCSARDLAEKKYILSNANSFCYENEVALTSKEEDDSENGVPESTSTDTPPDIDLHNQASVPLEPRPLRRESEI
From the text: Early drug discovery programs commonly assess hERG inhibition as the only indicator of potential cardiovascular safety concerns. Researchers have recently recommended a more rigorous evaluation of multiple cardiac ion channels to provide a more comprehensive cardiovascular risk assessment (Fermini, B., et al., A New Perspective in the Field of Cardiac Safety Testing through the Comprehensive In Vitro Proarrhythmia Assay Paradigm. J. Biomolec. Screening 2016, 21, 1-11). Given the promising initial results for 6, further evaluation was undertaken (in duplicate) in a Comprehensive in vitro Proarrhythmia Assay (CiPA) eight assay panel run on the QPatch HT (Sophion, Denmark) automated patch clamp system at three concentrations (3, 30, and 100 μM). All data were filtered for seal quality, seal drop, and current amplitude. A stock solution of the test compound at 30 mM concentration was prepared in DMSO.
The parameters measured were the maximum inward current evoked on stepping to −120 mV from the test pulse. The peak current amplitude was calculated before and after compound addition and the amount of block was assessed by dividing the Test compound current amplitude by the Control current amplitude. Control is the mean hKir2.1 current amplitude collected 15 seconds at the end of the control; Test Compound is the mean hKir2.1 current amplitude peak and end collected in the presence of test compound at each concentration. The positive control was barium chloride.

CYP3A4 = target: T3, CYP3A4 (Homo sapiens, UniProt P08684); experiment: CYP450 inhibition in human liver microsomes, CYP3A4; format: in vitro ADME; settings: both sexes
T3 construct: incubated with human liver microsomes (mixed gender, pool of 50 donors, 0.1 mg/mL); from tissue; host or cells: human liver microsomes, pool of 50 donors
T3 sequence (P08684 whole entry): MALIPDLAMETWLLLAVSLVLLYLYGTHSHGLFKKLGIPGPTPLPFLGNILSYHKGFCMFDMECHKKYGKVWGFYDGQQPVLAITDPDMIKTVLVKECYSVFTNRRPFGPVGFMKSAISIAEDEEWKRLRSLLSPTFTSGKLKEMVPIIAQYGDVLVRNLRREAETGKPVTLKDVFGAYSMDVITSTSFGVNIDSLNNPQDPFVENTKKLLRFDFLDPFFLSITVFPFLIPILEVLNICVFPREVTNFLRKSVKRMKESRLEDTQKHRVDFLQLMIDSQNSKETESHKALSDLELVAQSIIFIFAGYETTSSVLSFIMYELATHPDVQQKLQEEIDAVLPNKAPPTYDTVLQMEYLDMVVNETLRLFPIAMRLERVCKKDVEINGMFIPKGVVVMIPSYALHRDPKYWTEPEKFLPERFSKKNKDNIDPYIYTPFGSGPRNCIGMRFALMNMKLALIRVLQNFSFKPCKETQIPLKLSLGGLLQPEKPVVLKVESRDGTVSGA
Description: as §1, with “Each test compound was screened at a final concentration of 10 μM.” left out

[6] = read-out: % Inhibition Kir2.1 (end current)
[7] = read-out: % Inhibition Kir2.1 (peak current)
[8] = liver microsomes, pH 7.4, probe midazolam, Exp. 1, read-out: CYP3A4 (midazolam hydroxylase) % of control (Exp. 1)
[9] = liver microsomes, pH 7.4, probe midazolam, Exp. 2, read-out: CYP3A4 (midazolam hydroxylase) % of control (Exp. 2)
[10] = liver microsomes, pH 7.4, probe midazolam, Exp. 3, read-out: CYP3A4 (midazolam hydroxylase) % of control (Exp. 3)

## COc1ccc2ncc(F)c(CC[C@@]3(O)CO[C@@H]4[C@@H](NCc5cc6c(cn5)OCCO6)CO[C@@H]43)c2n1 [Compound 6, (3R, 3aS,6S,6aR)-6-(((2,3-dihydro-[1,4]dioxino[2,36-c]pyridin-7-yl)methyl)amnino)-3-(2-(3-fluoro-6-methoxy-1,5-naphthyridin-4-yl)ethyl)hexahydrofuro[3,2-b]furan-3-ol]
S. aureus ATCC 29213 [1]
  MIC: 0.25 µg/mL (≈ 0.501 µM)
S. aureus ATCC 29213 [2]; 8X agar dilution MIC
  Spontaneous mutation frequency (8X MIC): 7.89 × 10^−8 (n = 1)
S. aureus ATCC 29213 [2]; 16X agar dilution MIC
  Spontaneous mutation frequency (16X MIC): 1.57 × 10^−9 (n = 1)
[3]
  MIC: 64 µg/mL (≈ 128 µM)
CYP2B6
  CYP2B6 inhibition: Less than 50%
[4]; Staphylococcus aureus, Cmpd. 6, MIC90
  MIC90: 2 µg/mL (≈ 4.01 µM)
[4]; panel of fluoroquinolone-resistant MRSA isolates
  MIC90 better than that of ciprofloxacin: 16 fold
Histamine H2
  inhibition at 100 µM: 51%
[5]; [6]
  inhibition at 3 µM: 8.3%
  inhibition at 30 µM: 19.6%
  inhibition at 100 µM: 31.9%
[5]; [7]
  inhibition at 3 µM: 6.9%
  inhibition at 30 µM: 18%
  inhibition at 100 µM: 29.7%
CYP3A4; human liver microsomes, pH 7.4, probe midazolam (midazolam hydroxylase activity), Exp. 1, read-out: CYP3A4 (midazolam hydroxylase) % of control (Exp. 1)
  activity at 3 µM: 74.3%
CYP3A4; human liver microsomes, pH 7.4, probe midazolam (midazolam hydroxylase activity), Exp. 2, read-out: CYP3A4 (midazolam hydroxylase) % of control (Exp. 2)
  activity at 3 µM: 77.2%
CYP3A4; human liver microsomes, pH 7.4, probe midazolam (midazolam hydroxylase activity), Exp. 3, read-out: CYP3A4 (midazolam hydroxylase) % of control (Exp. 3)
  activity at 3 µM: 60.4%
CYP3A4; human liver microsomes, pH 7.4, probe midazolam (midazolam hydroxylase activity), 10 μM, Exp. 3, read-out: CYP3A4 (midazolam hydroxylase) % of control (Exp. 3)
  activity at 10 µM: 74.5%
CYP3A4; [8]
  activity at 0.1 µM: 116%
  activity at 0.3 µM: 89.9%
  activity at 1 µM: 60.4%
CYP3A4; [9]
  activity at 0.1 µM: 108%
  activity at 0.3 µM: 113%
  activity at 1 µM: 89.8%
CYP3A4; [10]
  activity at 0.1 µM: 97%
  activity at 0.3 µM: 99.2%
  activity at 1 µM: 89.9%
CYP3A4; liver microsomes, pH 7.4, probe midazolam, 10 μM, Exp. 1, read-out: CYP3A4 (midazolam hydroxylase) % of control (Exp. 1)
  activity at 10 µM: 49.5%
CYP3A4; liver microsomes, pH 7.4, probe midazolam, 10 μM, Exp. 2, read-out: CYP3A4 (midazolam hydroxylase) % of control (Exp. 2)
  activity at 10 µM: 82.3%
CYP3A4; liver microsomes, pH 7.4, probe midazolam, 10 μM, screening assay
  inhibition at 10 µM: 56%
CYP3A4; liver microsomes, pH 7.4, probe midazolam, concentration-response assay in triplicate
  pIC50: < 5.00
